Values joined by “and” are separate entries in the source; they are usually repeats but may differ in a detail not shown here. Equal entries are not always repeated.
Legend:
tetrameric transthyretin [1] = target: T1, tetrameric transthyretin (Homo sapiens, UniProt P02766); test: Western blotting method (urea, cross-linking, SDS-PAGE, anti-transthyretin immunoblot) of plasma samples; type: biochemical; set-up: human plasma samples containing transthyretin; from tissue; host or cells: human plasma (single samples or pools of donors); details: 7.2 μM, 3 day urea treatment, FIG. 4B
Excerpt: The position of transthyretin tetramer on the immunoblot is indicated at the left of the immunoblot, and the time point at which the samples were collected for assay (0 or 3 days) are indicated above the immunoblot.

tetrameric transthyretin [2] = target: T1, tetrameric transthyretin; test: Immuno-turbidimetric assay 1: plasma + compound, 4.8 M urea, glutaraldehyde cross-linking, Olympus OSR6175 reagent; details: for Normalized (mg/dL) transthyretin tetramer concentration: 7.2 μM compound, 40 mM glutaraldehyde
Protocol: Next, the immuno-turbidity assay was evaluated in human plasma samples containing transthyretin and in the presence and absence of a test compound 2-(2,6-dichloro-phenyl)-benzoxazole-6-carboxylic acid (a transthyretin stabilizing compound, see Published U.S. Application No. 20040152140). A 1 mL plasma sample was incubated with 1 μL of 2-(2,6-Dichloro-phenyl)-benzoxazole-6-carboxylic acid (solubilized in dimethyl sulfoxide (DMSO), or a control solution containing only DMSO, for 15 minutes at room temperature. The final test concentration of 2-(2,6-dichloro-phenyl)-benzoxazole-6-carboxylic acid (Cmp. 1) was 7.2 μM. Experimental (with compound) or control (only DMSO) samples were then each combined with 1.5 mL of 8 M urea to a final urea concentration of 4.8 M. A 1 mL aliquot was removed immediately (no incubation (no-inc)) for cross-linking and the remaining 1.5 mL mixture was incubated for 3 days at room temperature (3 day). Immediately for the no-inc 1 mL aliquot or following the 3 day incubation for the 3 day samples, 1 mL of the samples was cross-linked by adding 16 L of 25% (2.5 M) glutaraldehyde in water to a final concentration of 40 mM. The mixtures were incubated for 4 minutes at room temperature. The cross-linking reaction was stopped by the addition of 54 μL of 1.85 M freshly prepared sodium borohydride in 0.1 N sodium hydroxide, followed by a 5 minute incubation at room temperature. For analysis, the OSR6175 reagent was added to sample per manufacturer's instructions, and the turbidity, as a measure of the difference between incident and transmitted light, was calculated per manufacturer instruction.
To test the effect of different dosages of 2-(3,5-dichloro-phenyl)-benzoxazole-6-carboxylic acid (Cmp. 2) on transthyretin stabilization, plasma samples (a pool from 20 individual donors) containing 4.3 M transthyretin were treated with 2.2 μM, 4.3 μm, or 8.6 μm Cmp. 2, or DMSO as a negative control, for 15 minutes at room temperature. Following the incubation, the urea denaturant was added to the samples resulting in a final urea concentration of 4.8 M (see FIG. 6). As above, aliquots were removed immediately (day 0) and after incubation at room temperature for 1, 2, and 3 days. Cross-linking (glutaraldehyde) and detection of transthyretin using the Olympus OSR6175 reagent were performed as described under Example 1. For each concentration of Cmp. […]
Since the concentration of transthyretin fluctuates from day to day in an individual subject and can vary between different subjects (e.g., different patients), the efficacy of Cmp. […] Samples were then subjected to denaturation and cross-linking, and stabilized tetrameric transthyretin was measured as described above in Examples 1 and 3.

tetrameric transthyretin [3] = target: T1, tetrameric transthyretin; test: Immuno-turbidimetric assay 2: plasma + compound, urea, no cross-linking (dilution or immediate detection); details: for Stabilization of transthyretin tetramer (in words): 7.2 μM, urea for 3 days, Table 2; for Stabilization of transthyretin tetramer (in words) / Beckman Normalized / Olympus Normalized: human plasma; for Beckman Normalized / Olympus Normalized: 7.2 μM compound, 4.8 M urea; for Beckman Normalized: Beckman reagent; for Olympus Normalized: Olympus reagent
Protocol: In this second assay, the cross-linking step is replaced with a step of terminating denaturation (caused by the urea treatment) by dilution of the sample. Briefly, a 1 ml sample of human plasma was combined with either 1 μl of a test compound (Cmp. 1: 2-(2,6-dichloro-phenyl)-benzoxazole-6-carboxylic acid or Cmp. 2: 2-(3,5-dichloro-phenyl)-benzoxazole-6-carboxylic acid; see Published U.S. Application No. 20040152140) solubilized in DMSO or a control solution of DMSO, and the samples were incubated for 15 minutes at room temperature prior to addition of urea. The final concentration of the test compounds was 7.2 μM in DMSO. A solution of urea was added such that the final concentration of urea in the sample was 4.8 M. A 1 mL aliquot was removed immediately (no incubation (no-inc)) for dilution (see below) and the remaining 1.5 mL mixture was incubated for 3 days at room temperature (3 day) (FIG. 3). Immediately (for the no-inc) or following the three day incubation (for the 3 day samples), the samples were diluted 1:5 (four volumes diluent were added per one volume equivalent of sample). Potassium chloride (KCl) and sodium phosphate (NaPO4) were also added to the samples at final concentrations of 50 mM and 25 mM, respectively.
2 was also monitored using immuno-turbidimetric assay 2 (Example 2). Plasma samples (a pool from 16 individual donors) containing 4.6 μM transthyretin were treated with 4.6 μm, or 9.2 μm Cmp. 2, or DMSO as a negative control, for 15 minutes at room temperature. Following the incubation, urea was added to the samples resulting in a final urea concentration of 3.2 M (see FIG. 7). Aliquots were removed immediately (day 0) and after incubation at room temperature for 8, 13, 24, 32, and 48 hours. Immediate detection of transthyretin using the Bayer ADVIA prealbumin kit was performed as described by the manufacturer. For each concentration of Cmp. 2, the assay-determined transthyretin concentration at 8, 13, 24, 32, and 48 hours was divided by the assay-determined initial concentration at day 0 to yield the percent of tetramer remaining (FIG. 7).

[4] = target: V30M transthyretin mutation, tetrameric transthyretin (Homo sapiens, UniProt P02766, V50M); test: Immuno-turbidimetric assay 1 on pooled plasma from familial amyloid polyneuropathy patients; type: biochemical; details: urea 24, 31 or 36, or 48 hours; 22 mg/dL transthyretin; FIG. 9
Protocol: The Y-axis represents the percentage of the initial (“Fraction of initial”) transthyretin tetramer concentration remaining in each sample following treatment with urea.
The samples were then subjected to denaturation for 24, 31 or 36, or 48 hours and then cross-linked (as above).

Stabilization of tetrameric transthyretin by western blot (in words) (tetrameric transthyretin [1])	Stabilization of tetrameric transthyretin (in words) (tetrameric transthyretin [2]; 7.2 μM, three-day 4.8 M urea treatment, human plasma)	Normalized (mg/dL) transthyretin tetramer concentration (tetrameric transthyretin [2]; Day 0 (no incubation), 4.8 M urea, human plasma) [mg/dL]	Normalized (mg/dL) transthyretin tetramer concentration (tetrameric transthyretin [2]; Day 3 in 4.8 M urea, human plasma) [mg/dL]	Stabilization of transthyretin tetramer (in words) (tetrameric transthyretin [3])	Beckman Normalized (tetrameric transthyretin [3]; Day 0) [mg/dL]	Olympus Normalized (tetrameric transthyretin [3]; Day 0)	Beckman Normalized (tetrameric transthyretin [3]; Day 3) [mg/dL]	Olympus Normalized (tetrameric transthyretin [3]; Day 3) [mg/dL]	Dose dependence of tetramer stabilization (percent of tetramer remaining) (tetrameric transthyretin [2]; 2.2, 4.3, 8.6 μM, 4.8 M urea, days 1, 2, 3, pooled plasma, FIG. 6)	Stabilization of tetrameric transthyretin in V30M patient plasma [4]	Dose dependence of tetramer stabilization (percent of tetramer remaining) (tetrameric transthyretin [3]; 4.6 or 9.2 μM, 3.2 M urea, 8-48 hours, Bayer ADVIA prealbumin kit, pooled plasma, FIG. 7)	SMILES
almost completely stabilized	nearly completely stabilized	23.5	21.9	almost completely stabilized	10.53	22.12 mg/dL	12.26	23.45	–	–	–	O=C(O)c1ccc2nc(-c3c(Cl)cccc3Cl)oc2c1 [Cmp. 1]
–	–	–	–	significantly stabilized	–	22.12 mg/dL and 23.72 mg/dL	–	13.59	more effective than lower concentrations	stabilized in a dose-dependent manner	more effective than lower concentrations	O=C(O)c1ccc2nc(-c3cc(Cl)cc(Cl)c3)oc2c1 [Cmp. 2]

Reference: patent US20080131907A1, “ASSAYS FOR DETECTING NATIVE-STATE PROTEINS AND IDENTIFYING COMPOUNDS THAT MODULATE THE STABILITY OF NATIVE-STATE PROTEINS” (FoldRx Pharmaceuticals, Inc., priority 2006, published 2008)
